Experimental data: patent publication US9447044B2, “Thioaryl derivatives as GPR120 agonists” (LG LIFE SCIENCES LTD., priority 2012, dated 2016)

Biological target: T1, hGPR120 (Homo sapiens, UniProt Q5NUL3)
T1 construct: expressed in transfected cells; host or cells: CHO-K1
T1 sequence (Q5NUL3 1-361): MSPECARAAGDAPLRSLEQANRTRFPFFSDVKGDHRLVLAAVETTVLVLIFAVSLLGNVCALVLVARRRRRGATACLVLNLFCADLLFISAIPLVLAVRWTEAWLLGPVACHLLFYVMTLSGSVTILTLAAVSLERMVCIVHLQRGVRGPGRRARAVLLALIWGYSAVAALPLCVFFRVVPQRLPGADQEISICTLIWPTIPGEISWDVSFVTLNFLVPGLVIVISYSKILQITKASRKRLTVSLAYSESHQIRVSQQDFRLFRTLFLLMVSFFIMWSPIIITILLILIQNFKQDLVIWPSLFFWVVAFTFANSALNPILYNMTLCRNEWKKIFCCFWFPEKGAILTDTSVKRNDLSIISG
Test: Measurement of activity of GPR120 agonist (cell-based assay), calcium fluorescence
Conditions: CHO-K1 cells expressing Ga16 and hGPR120, Calcium 5 dye fluorescence
Protocol: CHO-K1 cells expressing Ga16 and hGPR120 were dispensed into each well of a 96-well plate (3×10^4 cells/100 μl/well) and then incubated in 5% CO2, 37° C. incubator for 18 hours. Each well was treated with 100 μl of Calcium 5 dye (Molecular Devices) solution including 2% DMSO and then incubated in 5% CO2, 37° C. incubator for 1 hour. Serially diluted GPR120 agonists were prepared to a final concentration of 0.5% DMSO in a 96-well plate. Each well was treated with 50 μl of the agonist compounds using Plexstation II, and then fluorescence was measured at Ex 485 nm, Em 525 nm.
Fluorescence increased by the serially diluted GPR120 agonists is calculated as a relative percent (%) value based on the fluorescence represented by the treatment of 0.1% DMSO only. […] The calculation of measurement was carried out by using statistical software (Prizm).
Activity is denoted based on the following criteria: A=>20 μM, B=[…], C=2˜0.2 μM, D=<0.2 μM

SMILES | EC50 (activity class) | EC50 (numeric value)
CCCSc1ncccc1COc1ccc(C2CC2CC(=O)O)cc1F (stereo not drawn) [Example 121, {2-[3-fluoro-4-(2-propylsulfanyl-pyridin-3-ylmethoxy)-phenyl]-cyclopropyl}-acetic acid] | < 200 nM | 
O=C(O)CCc1ccc(OCc2cccc(SC3CCC3)n2)c(Cl)c1 [Example 159, 3-[3-chloro-4-(6-cyclobutylsulfanyl-pyridin-2-ylmethoxy)-phenyl]-propionic acid] | < 200 nM | 
O=C(O)CCc1ccc(OCc2cccc(SCC3CC3)n2)cc1 [Example 183] | 200 to 2000 nM | 
CCCSc1ncccc1COc1ccc(C2CC2C(=O)O)cc1F (single isomer, unassigned) [Example 119, 2-[3-fluoro-4-(2-propylsulfanyl-pyridin-3-ylmethoxy)-phenyl]-cyclopropane carboxylic acid] | < 200 nM | 
CCCSc1ncccc1COc1ccc(C2CC2C(=O)O)cc1F (single isomer, unassigned) [Example 163, 2-[3-fluoro-4-(2-propylsulfanyl-pyridin-3-ylmethoxy)-phenyl]-cyclopropane carboxylic acid] | < 200 nM | 
CCCCSc1ncccc1COc1ccc(CC(C)C(=O)O)cc1F (stereo not drawn) [Example 61, 3-[4-(2-butylsulfanyl-pyridin-3-ylmethoxy)-3-fluoro-phenyl]-2-methyl-propionic acid] | < 200 nM | 
CC(C)Sc1cccc(COc2ccc(CC(C)C(=O)O)cc2F)n1 (stereo not drawn) [Example 52, 3-[3-fluoro-4-(6-isopropylsulfanyl-pyridin-2-ylmethoxy)-phenyl]-2-methyl-propionic acid] | < 200 nM | 
O=C(O)CC1COc2cc(OCc3cccc(SC4CCCC4)n3)ccc21 (stereo not drawn) [Example 68, [6-(6-cyclopentylsulfanyl-pyridin-2-ylmethoxy)-2,3-dihydro-benzofuran-3-yl]-acetic acid] | 200 to 2000 nM | 
CC(C)Sc1cccc(COc2ccc(CC(C)(C)C(=O)O)cc2)n1 [Example 70, 3-[4-(6-isopropylsulfanyl-pyridin-2-ylmethoxy)-phenyl]-2,2-dimethyl-propionic acid] |  | 1880 nM
O=C(O)CCc1cc(F)c(OCc2cccnc2SCC(F)(F)F)c(F)c1 [Example 18, 3-{3,5-difluoro-4-[2-(2,2,2-trifluoro-ethylsulfanyl)-pyridin-3-ylmethoxy]-phenyl}-propionic acid] | 200 to 2000 nM | 
CC(Cc1cc(F)c(OCc2cccc(SC3CCCC3)n2)c(F)c1)C(=O)O (stereo not drawn) [Example 44, 3-[4-(6-cyclopentylsulfanyl-pyridin-2-ylmethoxy)-3,5-difluoro-phenyl]-2-methyl-propionic acid] | < 200 nM | 
CC(C)(C)Sc1ncccc1COc1c(F)cc(CCC(=O)O)cc1F [Example 16, 3-[4-(2-t-butylsulfanyl-pyridin-3-ylmethoxy)-3,5-difluoro-phenyl]-propionic acid] | < 200 nM | 
O=C(O)CCc1ccc(NCc2cccnc2SC2CCCC2)cc1 [Example 171, 3-{4-[(2-cyclopentylsulfanyl-pyridin-3-ylmethyl)-amino]-phenyl]-propionic acid] | 200 to 2000 nM | 
O=C(O)CCc1ccc(OCc2cccnc2SC2CCC2)cc1 [Example 180] | 200 to 2000 nM | 
O=C(O)C1CC1c1ccc(OCc2cccc(SCC3CC3)n2)c(F)c1 (stereo not drawn) [Example 170, 2-[4-(6-cyclopropylmethylsulfanyl-pyridin-2-ylmethoxy)-3-fluoro-phenyl]-cyclopropane carboxylic acid] | < 200 nM | 
Cc1ccc(COc2ccc(CCC(=O)O)cc2)c(SC(C)C)n1 [Example 185] |  | 441 nM
CC(C)Sc1ncccc1COc1ccc(C2CC2C(=O)O)cc1F (stereo not drawn) [Example 162, 2-[3-fluoro-4-(2-isopropylsulfanyl-pyridin-3-ylmethoxy)-phenyl]-cyclopropane carboxylic acid] | < 200 nM | 
O=C(O)CCc1cc(F)c(OCc2cccnc2SC2CCCCC2)c(F)c1 [Example 22, 3-[4-(2-cyclohexylsulfanyl-pyridin-3-ylmethoxy)-3,5-difluoro-phenyl]-propionic acid] | 200 to 2000 nM | 
Cc1c(OCc2cccc(SC(C)C)n2)ccc(C2CC2C(=O)O)c1C (stereo not drawn) [Example 114, 2-[4-(6-isopropylsulfanyl-pyridin-2-ylmethoxy)-2,3-dimethyl-phenyl]-cyclopropane carboxylic acid] | 2000 to 20000 nM | 
O=C(O)C1CC1c1cc(F)c(OCc2cccc(SCC3CC3)n2)c(F)c1 (stereo not drawn) [Example 153, 2-[4-(6-cyclopropylmethylsulfanyl-pyridin-2-ylmethoxy)-3,5-difluoro-phenyl]-cyclopropane carboxylic acid] | < 200 nM | 

SMILES | EC50 (activity class) | EC50 (numeric value)
CCCSc1ncccc1COc1c(F)cc(CCC(=O)O)cc1F [Example 14, 3-[3,5-difluoro-4-(2-propylsulfanyl-pyridin-3-ylmethoxy)-phenyl]-propionic acid] | < 200 nM | 
CC(Cc1ccc(OCc2cccnc2SC2CCCC2)c(F)c1)C(=O)O (stereo not drawn) [Example 38, 3-[4-(2-cyclopentylsulfanyl-pyridin-3-ylmethoxy)-3-fluoro-phenyl]-2-methyl-propionic acid] | < 200 nM | 
COc1cc(CCC(=O)O)ccc1OCc1cccnc1SC(C)C [Example 57, 3-[4-(2-isopropylsulfanyl-pyridin-3-ylmethoxy)-3-methoxy-phenyl]-propionic acid] |  | 454 nM
CCC(C)Sc1cccc(COc2c(F)cc(CCC(=O)O)cc2F)n1 (stereo not drawn) [Example 34, 3-[4-(6-sec-butylsulfanyl-pyridin-2-ylmethoxy)-3,5-difluoro-phenyl]-propionic acid] | < 200 nM | 
O=C(O)CC1CC1c1ccc(OCc2cccc(SC3CCCC3)n2)c(F)c1 (stereo not drawn) [Example 120, {2-[4-(6-cyclopentylsulfanyl-pyridin-2-ylmethoxy)-3-fluoro-phenyl]-cyclopropyl}-acetic acid] | 200 to 2000 nM | 
O=C(O)C1CC1c1ccc(OCc2cccc(SC3CCC3)n2)c(F)c1 (single isomer, unassigned) [Example 135, 2-[4-(6-cyclobutylsulfanyl-pyridin-2-ylmethoxy)-3-fluoro-phenyl]-cyclopropane carboxylic acid] |  | 27 nM
CC(Cc1ccc(OCc2cccnc2SCC2CC2)c(F)c1)C(=O)O (stereo not drawn) [Example 40, 3-[4-(2-cyclopropylmethylsulfanyl-pyridin-3-ylmethoxy)-3-fluoro-phenyl]-2-methyl-propionic acid] | < 200 nM | 
Cc1c(CCC(=O)O)ccc(OCc2cccnc2SC2CCCC2)c1C [Example 80, 3-[4-(2-cyclopentylsulfanyl-pyridin-3-ylmethoxy)-2,3-dimethyl-phenyl]-propionic acid] | < 200 nM | 
O=C(O)C1CC1c1ccc(OCc2cccnc2SC2CCC2)c(Cl)c1 (single isomer, unassigned) [Example 125, 2-[3-chloro-4-(2-cyclobutylsulfanyl-pyridin-3-ylmethoxy)-phenyl]-cyclopropane carboxylic acid] | < 200 nM | 
CC(C)(C)CSc1ncccc1COc1c(F)cc(CCC(=O)O)cc1F [Example 28, 3-{4-[2-(2,2-dimethyl-propylsulfanyl)-pyridin-3-ylmethoxy]-3,5-difluoro-phenyl}-propionic acid] | 200 to 2000 nM | 
O=C(O)C1CC1c1ccc(OCc2cccc(SC3CCC3)n2)cc1Cl (stereo not drawn) [Example 90] | < 200 nM | 
O=C(O)C1CC1c1ccc(OCc2cccnc2SCC2CC2)c(Cl)c1 (stereo not drawn) [Example 127, 2-[3-chloro-4-(2-cyclopropylmethylsulfanyl-pyridin-3-ylmethoxy)-phenyl]-cyclopropane carboxylic acid] | < 200 nM | 
O=C(O)C1CC1c1ccc(OCc2cccnc2SC2CCCC2)cc1F (stereo not drawn) [Example 174] | 200 to 2000 nM | 
CC(Cc1cc(F)c(OCc2cccnc2SC2CCC2)c(F)c1)C(=O)O (stereo not drawn) [Example 56, 3-[4-(2-cyclobutylsulfanyl-pyridin-3-ylmethoxy)-3,5-difluoro-phenyl]-2-methyl-propionic acid] | < 200 nM | 
CC(C)Sc1ncccc1COc1ccc(C2CC2C(=O)O)cc1F (stereo not drawn) [Example 83, 2-[3-fluoro-4-(2-isopropylsulfanyl-pyridin-3-ylmethoxy)-phenyl]-cyclopropane carboxylic acid] |  | 110 nM
CC(C)Sc1ncccc1COc1c(F)cc(C2CC2C(=O)O)cc1F (stereo not drawn) [Example 138, 2-[3,5-difluoro-4-(2-isopropylsulfanyl-pyridin-3-ylmethoxy)-phenyl]-cyclopropane carboxylic acid] |  | 56 nM
O=C(O)CCc1ccc(OCc2cccnc2SC2CCC2)cc1F [Example 175] | 200 to 2000 nM | 
Cc1c(OCc2cccnc2SC(C)C)ccc(C2CC2C(=O)O)c1C (stereo not drawn) [Example 105, 2-[4-(2-isopropylsulfanyl-pyridin-3-ylmethoxy)-2,3-dimethyl-phenyl]-cyclopropane carboxylic acid] | 2000 to 20000 nM | 
CC(C)Sc1nccc(COc2c(F)cc(CCC(=O)O)cc2F)n1 [Example 24, 3-[3,5-difluoro-4-(2-isopropylsulfanyl-pyrimidin-4-ylmethoxy)-phenyl]-propionic acid] | 200 to 2000 nM | 
